Assay results taken from ChEMBL document CHEMBL6153150, “Design, Synthesis, and Biological Evaluation of Chiral-Proline Derivatives as Novel HSP90 Inhibitors” (ACS Med Chem Lett, 2025).
pIC50, pKd: −log10 of the molar value. Calls of active or inactive are those of the source. No cut-off for these calls is given here.

Assays:
[1] = molecular target: T1, Heat shock protein HSP90 (Homo sapiens, UniProt P07900+P08238); experiment: Binding affinity to Hsp90 (unknown origin) assessed as dissociation constant incubated for 30 mins by fluorescence spectrophotometric analysis; assay type: protein assay
[2] = molecular target: T1, Heat shock protein HSP90; experiment: Inhibition of Hsp90 (unknown origin) ATPase activity assessed as decrease in absorbance using PEP as substrate in presence of ATP and NADH by absorbance based assay; assay type: protein assay
[3] = molecular target: T2, Endoplasmin (Homo sapiens, UniProt P14625); experiment: Inhibition of GRP94 (unknown origin) incubated for 12 to 16 hrs by FP competition assay
T2 sequence (P14625 whole entry): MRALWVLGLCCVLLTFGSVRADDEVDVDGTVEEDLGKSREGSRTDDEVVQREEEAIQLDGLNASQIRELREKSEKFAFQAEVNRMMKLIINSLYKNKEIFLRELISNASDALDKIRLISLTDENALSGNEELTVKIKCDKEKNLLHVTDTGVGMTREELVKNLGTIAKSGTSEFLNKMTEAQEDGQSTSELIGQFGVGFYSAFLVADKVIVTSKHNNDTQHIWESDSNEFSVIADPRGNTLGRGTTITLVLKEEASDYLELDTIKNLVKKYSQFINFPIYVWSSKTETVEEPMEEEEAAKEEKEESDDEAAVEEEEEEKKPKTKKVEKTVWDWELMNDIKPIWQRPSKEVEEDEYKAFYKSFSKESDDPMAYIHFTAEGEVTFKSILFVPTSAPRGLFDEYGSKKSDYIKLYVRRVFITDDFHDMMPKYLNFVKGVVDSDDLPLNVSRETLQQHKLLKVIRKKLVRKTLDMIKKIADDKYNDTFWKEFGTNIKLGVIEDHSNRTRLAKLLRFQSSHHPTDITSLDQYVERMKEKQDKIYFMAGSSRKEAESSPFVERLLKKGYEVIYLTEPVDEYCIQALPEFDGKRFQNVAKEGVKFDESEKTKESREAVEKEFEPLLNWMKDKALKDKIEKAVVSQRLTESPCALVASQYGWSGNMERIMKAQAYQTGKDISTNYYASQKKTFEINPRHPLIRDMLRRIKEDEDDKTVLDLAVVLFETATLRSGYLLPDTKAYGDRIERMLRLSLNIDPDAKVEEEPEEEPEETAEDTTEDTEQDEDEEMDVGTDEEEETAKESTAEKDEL

[4] = tested on: HCT-116; experiment: Antiproliferative activity against human HCT-116 cells assessed as cell viability inhibition rate incubated for 72 hr by MTT assay; assay type: functional, cell-based; conditions: HCT-116, 72 h
[5] = tested on: MCF7; experiment: Antiproliferative activity against human MCF7 cells assessed as cell viability inhibition rate incubated for 72 hr by MTT assay; assay type: functional, cell-based; conditions: MCF7, 72 h
[6] = tested on: SK-BR-3; experiment: Antiproliferative activity against human SK-BR-3 cells assessed as cell viability inhibition rate incubated for 72 hr by MTT assay; assay type: functional, cell-based; conditions: SK-BR-3, 72 h
[7] = tested on: K562; experiment: Antiproliferative activity against human K562 cells assessed as cell viability inhibition rate incubated for 72 hr by MTT assay; assay type: functional, cell-based; conditions: K562, 72 h
[8] = tested on: A549; experiment: Antiproliferative activity against human A549 cells assessed as cell viability inhibition rate incubated for 72 hr by MTT assay; assay type: functional, cell-based; conditions: A549, 72 h
[9] = molecular target: T3, Heat shock protein HSP 90-alpha (Homo sapiens, UniProt P07900); experiment: Inhibition of HSP90alpha (unknown origin) incubated for 12 to 16 hrs by FP competition assay
[10] = Selectivity ratio of IC50 for inhibition of GRP94 (unknown origin) to IC50 for inhibition of HSP90alpha (unknown origin)
[11] = Tmax in rat plasma at 50 mg/kg, po and measured upto 24 hr by LC-MS/MS analysis; assay type: ADME, organism-based
[12] = Cmax in rat plasma at 50 mg/kg, po and measured upto 24 hr by LC-MS/MS analysis; assay type: ADME, organism-based
[13] = AUC in rat plasma at 50 mg/kg, po and measured upto 24 hr by LC-MS/MS analysis; assay type: ADME, organism-based
[14] = Half life in rat plasma at 50 mg/kg, po and measured upto 24 hr by LC-MS/MS analysis; assay type: ADME, organism-based
[15] = Clearance in rat plasma at 50 mg/kg, po and measured upto 24 hr by LC-MS/MS analysis; assay type: ADME, organism-based
[16] = Oral bioavailability in rat at 50 mg/kg and measured upto 24 hr by LC-MS/MS analysis; assay type: ADME, organism-based; conditions: in vivo
[17] = molecular target: T3, Heat shock protein HSP 90-alpha; experiment: Binding affinity to Hsp90alpha (unknown origin) assessed as dissociation constant
[18] = molecular target: T2, Endoplasmin; experiment: Binding affinity to GRP94 (unknown origin) assessed as dissociation constant

| Structure (SMILES) | Kd [1] | pIC50 [4] | pIC50 [5] | pIC50 [6] | pIC50 [7] | pIC50 [8] | further results |
| --- | --- | --- | --- | --- | --- | --- | --- |
| CC(C)c1cc(C(=O)N2C[C@@H](c3ccccc3)C[C@@H]2C(=O)NCC(=O)N2CCCCC2)c(O)cc1O | – | – | – | – | – | – | Activity [1]: inactive; inhibition [2]: inactive |
| CCN1CCN(C(=O)[C@H]2C[C@H](c3ccccc3)CN2C(=O)c2cc(C(C)C)c(O)cc2O)CC1 | – | – | – | – | – | – | Activity [1]: inactive; inhibition [2]: inactive |
| O=C(c1ccccc1O)N1Cc2ccccc2C1 | 532 nM | – | – | – | – | – | IC50 [2]: 6940 nM |
| CC(C)c1cc(C(=O)N2C[C@@H](c3ccccc3)C[C@@H]2C(=O)NCCCN2CCOCC2)c(O)cc1O | 87 nM | 6.69 | 7.21 | 6.68 | 6.36 | 7.55 | pIC50 [3]: 6.11; pIC50 [9]: 6.81; Ratio IC50 [10]: 5.02; Tmax [11]: 0.733 h; Cmax [12]: 65.7 µg/mL; AUC at 24 h [13]: 186 µg·h/mL; half-life [14]: 5.8 h; CL/F [15]: 1.46 mL/min/kg; bioavailability [16]: 5.5% |
| CC(C)c1cc(C(=O)N2Cc3ccc(CN4CCN(C)CC4)cc3C2)c(O)cc1O [ONALESPIB] | 27 nM | 6.99 | 7.28 | 6.71 | 6.33 | 6.88 | pIC50 [3]: 7.52; pKd [17]: 7.30; pKd [18]: 7.52; pIC50 [9]: 7.30; Ratio IC50 [10]: 0.6 |
| O=C(NCCCN1CCOCC1)[C@H]1C[C@H](c2ccccc2)CN1C(=O)c1cc(C2CC2)c(O)cc1O | 68 nM | 6.73 | 7.14 | 6.98 | 6.39 | 7.51 | pIC50 [3]: 6.69; pIC50 [9]: 6.87; Ratio IC50 [10]: 1.49; Tmax [11]: 0.883 h; Cmax [12]: 76.5 µg/mL; AUC at 24 h [13]: 239 µg·h/mL; half-life [14]: 6.9 h; CL/F [15]: 1.75 mL/min/kg; bioavailability [16]: 7.1% |
| CC(C)N(Cc1cccnc1)C(=O)[C@H]1CCCN1C(=O)c1cc(C2CC2)c(OP(=O)(O)O)cc1O | 136 nM | – | – | – | – | – | IC50 [2]: 237 nM |
| CC(C)NC(=O)Oc1ccc2c(c1)CN(C(=O)c1cc(C3CC3)c(O)cc1O)C2 | 20 nM | – | – | – | – | – | IC50 [2]: 270 nM |
| CC(C)N(Cc1cccnc1)C(=O)[C@H]1CCCN1C(=O)c1cc(C2CC2)c(O)cc1O | 27 nM | – | – | – | – | – | IC50 [2]: 310 nM |
| CC(C)CNC(=O)[C@H]1C[C@H](c2ccccc2)CN1C(=O)c1cc(C(C)C)c(O)cc1O | 165 nM | 6.36 | 7.06 | 6.19 | 6.27 | 7.20 | – |
| CCOCCCNC(=O)[C@H]1C[C@H](c2ccccc2)CN1C(=O)c1cc(C2CC2)c(O)cc1O | 937 nM | 6.00 | 6.74 | 6.13 | 6.30 | 6.69 | – |
| CCN1CCCC1CNC(=O)[C@H]1C[C@H](c2ccccc2)CN1C(=O)c1cc(C(C)C)c(O)cc1O (stereo partly specified) | – | – | – | – | – | – | Activity [1]: inactive; inhibition [2]: inactive |
| CC(C)c1cc(C(=O)N2C[C@@H](c3ccccc3)C[C@@H]2C(=O)NC(C)c2ccccc2)c(O)cc1O (stereo partly specified) | 232 nM | 6.29 | 6.95 | 6.15 | 6.21 | 7.06 | – |
| CC(C)c1cc(C(=O)N2C[C@@H](c3ccccc3)C[C@@H]2C(=O)NC(C)C(C)C)c(O)cc1O (stereo partly specified) | 345 nM | 6.20 | 6.73 | 6.13 | 6.25 | 6.89 | – |
| CC(C)c1cc(C(=O)N2C[C@@H](c3ccccc3)C[C@@H]2C(=O)NCCc2ccccc2)c(O)cc1O | 32 nM | 6.57 | 7.27 | 6.43 | 6.21 | 7.35 | pIC50 [3]: 6.52; pIC50 [9]: 6.86; Ratio IC50 [10]: 2.22 |
| Cc1ccc(CNC(=O)[C@H]2C[C@H](c3ccccc3)CN2C(=O)c2cc(C3CC3)c(O)cc2O)cc1 | 153 nM | 6.33 | 7.05 | 6.37 | 6.25 | 7.05 | – |
| CCCCN(CCCC)C(=O)[C@H]1C[C@H](c2ccccc2)CN1C(=O)c1cc(C(C)C)c(O)cc1O | – | – | – | – | – | – | Activity [1]: inactive; inhibition [2]: inactive |
